According to the supplement of paper PMC10307832:

Columns and labels:
Assay in all cases: relative viability (nuclei count vs DMSO), 5 days (fraction); higher = more cells survive
[1] = tested on: Calu-6
How it was run: (§1)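 Values are medians from duplicate plates. Each reflects relative viability, defined as the nuclei count of treated wells over that of vehicle wells. Lung cancer cell lines in 1536-well plates were pin-tool dosed one day after seeding with one drug alone or with a fixed anchor-drug dose plus five library-drug doses (not always all listed) in √10 steps, then fixed, stained and imaged at 4× after 5 days.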

[2] = tested on: EBC-1
How it was run: as §1

[3] = tested on: IA-LM
How it was run: as §1

[4] = tested on: NCI-H1299
How it was run: as §1

[5] = tested on: NCI-H1563
How it was run: as §1

[6] = tested on: NCI-H1703
How it was run: as §1

[7] = tested on: A549
How it was run: as §1

Row | SMILES | relative viability ([1]; first compound 0.08 µM) | relative viability ([1]; first compound 0.253 µM) | relative viability ([1]; first compound 0.8 µM) | relative viability ([1]; first compound 2.53 µM) | relative viability ([1]; first compound 8 µM) | relative viability ([2]; first compound 0.08 µM) | relative viability ([2]; first compound 0.253 µM) | relative viability ([2]; first compound 0.8 µM) | relative viability ([2]; first compound 2.53 µM) | relative viability ([2]; first compound 8 µM) | relative viability ([3]; first compound 0.08 µM) | relative viability ([3]; first compound 0.253 µM) | relative viability ([3]; first compound 0.8 µM) | relative viability ([3]; first compound 2.53 µM) | relative viability ([3]; first compound 8 µM) | relative viability ([4]; first compound 0.08 µM) | relative viability ([4]; first compound 0.253 µM) | relative viability ([4]; first compound 0.8 µM) | relative viability ([4]; first compound 2.53 µM) | relative viability ([4]; first compound 8 µM) | relative viability ([5]; first compound 0.08 µM) | relative viability ([5]; first compound 0.253 µM) | relative viability ([5]; first compound 0.8 µM) | relative viability ([5]; first compound 2.53 µM) | relative viability ([5]; first compound 8 µM) | relative viability ([6]; first compound 0.08 µM) | relative viability ([6]; first compound 0.253 µM) | relative viability ([6]; first compound 0.8 µM) | relative viability ([6]; first compound 2.53 µM) | relative viability ([6]; first compound 8 µM) | relative viability ([7]; first compound 0.08 µM) | relative viability ([7]; first compound 0.253 µM) | relative viability ([7]; first compound 0.8 µM) | relative viability ([7]; first compound 2.53 µM)
1 | O=c1[nH]c2ccccc2n1C1CCN(CCCC(c2ccc(F)cc2)c2ccc(F)cc2)CC1 [Pimozide] + CC(C)C[C@H](NC(=O)[C@H](Cc1ccccc1)NC(=O)c1cnccn1)B(O)O [Bortezomib] (partner 0.002 µM) | 1 | 1.15 | 0.969 | 1.04 | 0.856 | 0.517 | 0.557 | 0.532 | 0.439 | 0.381 | 0.789 | 0.792 | 0.856 | 0.901 | 0.692 | 0.984 | 1.05 | 0.975 | 1.01 | 0.976 | 0.848 | 0.936 | 0.855 | 0.67 | 0.583 | 0.206 | 0.337 | 0.379 | 0.227 | 0.306 |  |  |  | 
2 | Cc1cnc(-c2cnc(NCCNc3ccc(C#N)cn3)nc2-c2ccc(Cl)cc2Cl)[nH]1 + CC(C)C[C@H](NC(=O)[C@H](Cc1ccccc1)NC(=O)c1cnccn1)B(O)O [Bortezomib] (partner 0.002 µM) | 0.933 | 0.996 | 1.06 | 1.03 |  | 0.607 |  | 0.546 | 0.509 |  | 0.849 | 0.855 | 1.06 | 0.891 |  | 1.05 | 1 | 1.02 | 0.969 |  | 0.831 | 0.944 | 0.827 | 0.914 |  | 0.337 | 0.352 | 0.5 | 0.699 |  |  |  |  | 
3 | Cc1cnc(-c2cnc(NCCNc3ccc(C#N)cn3)nc2-c2ccc(Cl)cc2Cl)[nH]1 + CC1(C)CCC(c2ccc(Cl)cc2)=C(CN2CCN(c3ccc(C(=O)NS(=O)(=O)c4ccc(N[C@H](CCN5CCOCC5)CSc5ccccc5)c(S(=O)(=O)C(F)(F)F)c4)cc3)CC2)C1 [Navitoclax] (partner 0.5 µM) | 0.826 | 0.773 | 0.789 | 0.717 |  | 0.399 | 0.351 | 0.542 | 0.23 |  | 0.78 | 0.71 | 0.809 | 0.695 |  | 1.04 | 1.02 | 1.09 | 1.04 |  |  |  |  |  |  | 1.15 | 1.03 | 1.2 | 1.08 |  | 1.23 | 1.18 | 1.21 | 1.18
